According to ChEMBL document CHEMBL1201862, “PubChem BioAssay data set” (2004):
One block for each compound: values may come before it. Active and inactive are the calls of the source.

Key:
Type in all cases: functional
[1] = molecular target: T1, Corticotropin-releasing factor receptor 2/Corticotropin-releasing factor-binding protein (Homo sapiens, UniProt P24387+Q13324); test: Dose Response confirmation of uHTS hits for small molecule antagonists of the CRF-binding protein and CRF-R2 receptor complex.; settings: read-out: IC50_Mean
T1 sequence (Q13324 whole entry): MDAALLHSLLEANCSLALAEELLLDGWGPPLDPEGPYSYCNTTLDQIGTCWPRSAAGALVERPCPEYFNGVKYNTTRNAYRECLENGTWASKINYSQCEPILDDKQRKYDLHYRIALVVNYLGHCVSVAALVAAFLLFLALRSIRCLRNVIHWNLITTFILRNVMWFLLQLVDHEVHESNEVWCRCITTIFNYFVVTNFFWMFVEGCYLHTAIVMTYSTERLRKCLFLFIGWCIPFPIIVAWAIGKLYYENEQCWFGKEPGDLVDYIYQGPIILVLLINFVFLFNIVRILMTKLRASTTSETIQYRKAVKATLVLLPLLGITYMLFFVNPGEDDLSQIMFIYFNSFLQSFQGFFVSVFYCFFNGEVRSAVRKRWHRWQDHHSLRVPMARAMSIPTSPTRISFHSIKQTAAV
T1 sequence (P24387 whole entry): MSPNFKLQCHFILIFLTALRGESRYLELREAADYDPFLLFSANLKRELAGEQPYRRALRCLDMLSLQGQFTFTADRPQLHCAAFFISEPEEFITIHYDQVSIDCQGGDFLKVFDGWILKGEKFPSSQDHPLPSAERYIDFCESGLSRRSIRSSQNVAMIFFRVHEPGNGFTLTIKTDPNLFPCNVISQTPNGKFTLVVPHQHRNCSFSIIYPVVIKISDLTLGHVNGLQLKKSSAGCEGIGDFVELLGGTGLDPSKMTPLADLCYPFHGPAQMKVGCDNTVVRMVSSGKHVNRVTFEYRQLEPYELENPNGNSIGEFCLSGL

[2] = molecular target: T1, Corticotropin-releasing factor receptor 2/Corticotropin-releasing factor-binding protein; test: activators of CRF receptor 2 with binding protein – uHTS hits, confirmation (AID 602473); settings: read-out: EC50_Mean
[3] = molecular target: T2, Calpain-2 catalytic subunit (Sus scrofa, UniProt P43367); test: pig calpain II inhibitor potency, dose response, biochemical, fluorogenic peptide substrate (AID 1420)
T2 sequence (P43367 whole entry): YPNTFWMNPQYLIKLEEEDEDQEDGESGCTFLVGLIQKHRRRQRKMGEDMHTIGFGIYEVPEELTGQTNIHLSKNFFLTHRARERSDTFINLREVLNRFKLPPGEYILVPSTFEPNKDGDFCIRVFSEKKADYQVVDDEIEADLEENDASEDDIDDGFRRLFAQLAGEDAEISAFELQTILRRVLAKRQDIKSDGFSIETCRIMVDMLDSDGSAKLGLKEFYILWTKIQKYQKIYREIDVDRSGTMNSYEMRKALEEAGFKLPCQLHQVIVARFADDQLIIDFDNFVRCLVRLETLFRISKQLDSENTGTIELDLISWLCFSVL

[4] = molecular target: T3, Protein skinhead-1 (Caenorhabditis elegans, UniProt P34707)
T3 sequence (P34707 whole entry): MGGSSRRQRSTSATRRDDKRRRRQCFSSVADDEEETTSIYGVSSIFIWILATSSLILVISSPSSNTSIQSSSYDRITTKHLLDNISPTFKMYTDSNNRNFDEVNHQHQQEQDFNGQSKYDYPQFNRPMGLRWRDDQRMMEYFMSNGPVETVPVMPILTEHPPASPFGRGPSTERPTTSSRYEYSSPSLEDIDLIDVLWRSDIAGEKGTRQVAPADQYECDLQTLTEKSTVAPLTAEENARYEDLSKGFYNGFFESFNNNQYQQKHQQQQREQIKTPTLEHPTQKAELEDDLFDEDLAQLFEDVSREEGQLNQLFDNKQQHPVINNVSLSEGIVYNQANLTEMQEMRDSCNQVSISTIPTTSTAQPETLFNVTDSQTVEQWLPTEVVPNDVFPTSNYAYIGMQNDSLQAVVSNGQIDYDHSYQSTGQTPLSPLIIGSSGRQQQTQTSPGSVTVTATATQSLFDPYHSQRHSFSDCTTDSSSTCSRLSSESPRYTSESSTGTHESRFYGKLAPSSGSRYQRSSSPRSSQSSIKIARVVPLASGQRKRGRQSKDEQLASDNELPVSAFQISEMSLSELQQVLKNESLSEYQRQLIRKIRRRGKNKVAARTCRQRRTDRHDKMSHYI

[5] = Luminescence Cell-Based Dose Response HTS to Identify Activators of Luciferase Translation or Activity in H4 […] Cells. [Related pubchem assays: 1829 (Project Summary), 1814 (Primary HTS)]
[6] = molecular target: T4, Fatty acid synthase (Homo sapiens, UniProt P49327); test: FAS thioesterase domain inhibitors, dose response, biochemical, endpoint fluorescence intensity, uHTS hits (AID 624327);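 further: fluorescence from hydrolysis of an O-methyl fluorescein acyl ester substrate by the enzyme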
T4 sequence (P49327 whole entry, the tested form may be a part): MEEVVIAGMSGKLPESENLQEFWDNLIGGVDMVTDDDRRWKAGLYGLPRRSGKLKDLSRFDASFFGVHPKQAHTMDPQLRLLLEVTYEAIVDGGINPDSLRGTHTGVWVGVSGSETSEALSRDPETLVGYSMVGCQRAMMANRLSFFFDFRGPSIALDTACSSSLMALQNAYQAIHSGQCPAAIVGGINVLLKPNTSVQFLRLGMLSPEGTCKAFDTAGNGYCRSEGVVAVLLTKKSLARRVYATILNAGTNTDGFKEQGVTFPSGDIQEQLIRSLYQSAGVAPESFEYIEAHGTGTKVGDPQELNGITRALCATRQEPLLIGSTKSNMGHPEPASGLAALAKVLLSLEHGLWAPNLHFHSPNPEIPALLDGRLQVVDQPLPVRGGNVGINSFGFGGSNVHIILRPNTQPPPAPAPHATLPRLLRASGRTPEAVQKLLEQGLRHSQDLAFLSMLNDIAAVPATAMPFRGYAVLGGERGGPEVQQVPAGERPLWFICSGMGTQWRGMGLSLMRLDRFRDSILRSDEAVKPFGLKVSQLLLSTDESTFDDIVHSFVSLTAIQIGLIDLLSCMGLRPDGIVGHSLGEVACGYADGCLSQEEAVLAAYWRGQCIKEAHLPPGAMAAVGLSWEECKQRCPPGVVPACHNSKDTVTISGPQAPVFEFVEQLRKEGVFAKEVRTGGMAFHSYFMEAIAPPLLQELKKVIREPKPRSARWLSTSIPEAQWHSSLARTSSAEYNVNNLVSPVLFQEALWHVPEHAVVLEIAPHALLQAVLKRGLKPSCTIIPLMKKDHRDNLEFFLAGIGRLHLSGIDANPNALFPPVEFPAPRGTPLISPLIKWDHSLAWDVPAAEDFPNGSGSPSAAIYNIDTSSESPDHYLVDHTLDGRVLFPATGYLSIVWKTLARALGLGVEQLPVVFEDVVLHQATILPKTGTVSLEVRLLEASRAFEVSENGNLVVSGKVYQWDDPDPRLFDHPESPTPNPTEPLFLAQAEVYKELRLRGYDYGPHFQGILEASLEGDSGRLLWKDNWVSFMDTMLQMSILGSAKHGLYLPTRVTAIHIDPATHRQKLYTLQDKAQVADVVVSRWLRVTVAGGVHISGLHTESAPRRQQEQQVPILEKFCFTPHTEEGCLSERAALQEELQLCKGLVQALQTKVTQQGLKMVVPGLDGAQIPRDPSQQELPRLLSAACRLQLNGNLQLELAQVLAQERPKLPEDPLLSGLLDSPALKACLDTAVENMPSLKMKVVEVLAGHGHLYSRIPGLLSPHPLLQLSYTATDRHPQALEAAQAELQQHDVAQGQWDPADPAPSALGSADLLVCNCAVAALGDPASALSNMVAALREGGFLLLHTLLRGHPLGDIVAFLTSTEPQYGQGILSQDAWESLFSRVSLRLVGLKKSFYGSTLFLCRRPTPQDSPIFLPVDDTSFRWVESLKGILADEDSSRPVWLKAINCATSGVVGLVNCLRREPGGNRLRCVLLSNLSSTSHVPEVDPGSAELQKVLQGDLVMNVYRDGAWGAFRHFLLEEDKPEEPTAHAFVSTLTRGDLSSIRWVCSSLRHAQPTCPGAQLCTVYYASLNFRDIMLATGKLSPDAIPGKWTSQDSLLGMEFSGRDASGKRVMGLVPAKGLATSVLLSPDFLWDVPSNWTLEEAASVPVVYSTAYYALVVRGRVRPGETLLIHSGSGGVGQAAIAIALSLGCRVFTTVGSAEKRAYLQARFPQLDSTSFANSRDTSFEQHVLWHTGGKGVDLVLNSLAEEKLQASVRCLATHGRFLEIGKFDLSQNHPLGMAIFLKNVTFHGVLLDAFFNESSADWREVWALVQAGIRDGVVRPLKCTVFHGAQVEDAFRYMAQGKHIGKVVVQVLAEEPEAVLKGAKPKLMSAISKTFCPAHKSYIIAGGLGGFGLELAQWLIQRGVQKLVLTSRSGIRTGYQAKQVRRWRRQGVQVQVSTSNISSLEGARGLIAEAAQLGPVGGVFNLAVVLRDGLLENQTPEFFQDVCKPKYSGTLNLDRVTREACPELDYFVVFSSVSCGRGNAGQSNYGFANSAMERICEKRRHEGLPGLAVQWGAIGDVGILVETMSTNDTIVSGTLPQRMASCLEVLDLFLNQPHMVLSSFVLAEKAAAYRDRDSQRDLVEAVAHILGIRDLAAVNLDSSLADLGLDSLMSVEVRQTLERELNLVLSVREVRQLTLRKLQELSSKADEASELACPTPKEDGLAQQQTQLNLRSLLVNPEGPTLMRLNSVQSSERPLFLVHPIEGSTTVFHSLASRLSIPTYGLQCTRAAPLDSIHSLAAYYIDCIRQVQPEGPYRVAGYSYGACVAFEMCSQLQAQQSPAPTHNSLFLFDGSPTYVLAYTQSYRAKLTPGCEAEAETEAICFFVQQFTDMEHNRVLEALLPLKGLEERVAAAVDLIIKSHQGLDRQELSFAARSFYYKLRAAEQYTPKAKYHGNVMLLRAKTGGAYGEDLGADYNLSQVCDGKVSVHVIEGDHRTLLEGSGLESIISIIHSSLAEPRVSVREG

[7] = molecular target: T4, Fatty acid synthase; test: FAS thioesterase domain inhibitors, dose response, biochemical, kinetic fluorescence intensity (AID 624326);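 further: rate of fluorescence rise from hydrolysis of a fluorogenic O-methyl fluorescein ester substrate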

Structure (SMILES): CCc1ccc(OCc2nnc(S)n2Cc2ccccc2)cc1
IC50 [3]: 4.01 µM (not active)

Structure (SMILES): O=c1c2ccccc2ccc2ccccc12
IC50 [4]: 21.3 µM (active)

Structure (SMILES): O=C(NCCc1ccccc1)c1ccc(Cl)nc1
EC50 [5]: 0.155 µM (inconclusive)

Structure (SMILES): O=C(CCNC(=O)c1ccc([N+](=O)[O-])cc1)NC1CCCCCC1
IC50 [6]: 8.77 µM (active)
IC50 [7]: 7.06 µM (active)

Structure (SMILES): Cn1nc(C(=O)OCC(=O)N2CCc3ccccc32)c2ccccc2c1=O
IC50 [3]: > 50 µM (not active)

Structure (SMILES): O=C(CN1C(=O)/C(=C/c2cccc(Br)c2)SC1=S)NC1=NCCS1
IC50 [3]: > 50 µM (not active)

Structure (SMILES): COc1ccc([N+](=O)[O-])cc1/C=N/NC(=O)/C(=C\c1cccs1)NC(=O)c1ccccc1
IC50 [6]: 2.62 µM (active)
IC50 [7]: 1.97 µM (active)

Structure (SMILES): CNC(=S)N/N=C/C1=CCC2CC1C2(C)C (configuration not stated)
IC50 [3]: > 50 µM (not active)

The remaining lines, values ahead:

IC50 [1]: > 47.1 µM (inactive)
EC50 [2]: > 53 µM (inactive)
Structure (SMILES): O=C(O)C1CC(=O)N(CCOc2ccccc2)C1 (configuration not stated)

IC50 [3]: > 50 µM (not active)
Structure (SMILES): O=C(CSc1ccccn1)C12CC3CC(CC(C3)C1)C2

IC50 [6]: 15.9 µM (active)
IC50 [7]: 19.4 µM (active)
Structure (SMILES): CCN(CC)c1cc2nonc2c2nonc12

IC50 [3]: 8.84 µM (not active)
Structure (SMILES): C[C@@H](NC(=O)c1[nH]cnc1C(=O)N[C@@H](CCCCNC(=O)OC(C)(C)C)C(=O)OC(C)(C)C)c1ccccc1

IC50 [4]: > 100 µM (inactive)
Structure (SMILES): O=C(CSc1nnc(COc2ccc(Cl)cc2)o1)NC1CC2CCC1C2 (configuration not stated)

IC50 [4]: > 100 µM (inactive)
Structure (SMILES): COc1ccc2cc(N3CCCC3=O)ccc2c1

IC50 [4]: > 100 µM (inactive)
Structure (SMILES): C=C1CCC[C@]2(C)C[C@H]3OC(=O)C(CNCCN(C)C)[C@H]3CC12 (some centres not stated)

IC50 [1]: > 47.1 µM (inactive)
EC50 [2]: > 53 µM (inactive)
Structure (SMILES): O=c1cc(-c2ccccc2)ss1

IC50 [4]: > 100 µM (inactive)
Structure (SMILES): O=C(CCN1CCCCCC1)Nc1ccccc1F

IC50 [4]: > 100 µM (inactive)
Structure (SMILES): Cc1cc(N2CCOCC2)nc2ccc(NC(=O)C3CCC(C)CC3)cc12 (configuration not stated)

IC50 [6]: 0.645 µM (active)
IC50 [7]: 0.846 µM (active)
Structure (SMILES): CCN(CC)C(=O)C1CCCN(c2ccc([N+](=O)[O-])cc2/C=N/NC(=O)c2ccccc2)C1 (configuration not stated)

IC50 [6]: 13.7 µM (active)
IC50 [7]: 10.3 µM (active)
Structure (SMILES): C/C(=N\Nc1ccccn1)c1ccc(S(=O)(=O)NCc2ccco2)cc1
